Results: patent US20230295200A1 (REGENTS OF THE UNIVERSITY OF MICHIGAN, priority 2022, published 2023)

Legend:
STAT6 protein = biological target: T1, STAT6 protein (Homo sapiens, UniProt P42226); assay: Fluorescence polarization (FP) binding assay, STAT6; conditions: FP competition, 5 nM fluorescein-labeled tracer, 200 nM protein, PBS pH7.4; read-out: Binding STAT6
T1 sequence (P42226 1-847): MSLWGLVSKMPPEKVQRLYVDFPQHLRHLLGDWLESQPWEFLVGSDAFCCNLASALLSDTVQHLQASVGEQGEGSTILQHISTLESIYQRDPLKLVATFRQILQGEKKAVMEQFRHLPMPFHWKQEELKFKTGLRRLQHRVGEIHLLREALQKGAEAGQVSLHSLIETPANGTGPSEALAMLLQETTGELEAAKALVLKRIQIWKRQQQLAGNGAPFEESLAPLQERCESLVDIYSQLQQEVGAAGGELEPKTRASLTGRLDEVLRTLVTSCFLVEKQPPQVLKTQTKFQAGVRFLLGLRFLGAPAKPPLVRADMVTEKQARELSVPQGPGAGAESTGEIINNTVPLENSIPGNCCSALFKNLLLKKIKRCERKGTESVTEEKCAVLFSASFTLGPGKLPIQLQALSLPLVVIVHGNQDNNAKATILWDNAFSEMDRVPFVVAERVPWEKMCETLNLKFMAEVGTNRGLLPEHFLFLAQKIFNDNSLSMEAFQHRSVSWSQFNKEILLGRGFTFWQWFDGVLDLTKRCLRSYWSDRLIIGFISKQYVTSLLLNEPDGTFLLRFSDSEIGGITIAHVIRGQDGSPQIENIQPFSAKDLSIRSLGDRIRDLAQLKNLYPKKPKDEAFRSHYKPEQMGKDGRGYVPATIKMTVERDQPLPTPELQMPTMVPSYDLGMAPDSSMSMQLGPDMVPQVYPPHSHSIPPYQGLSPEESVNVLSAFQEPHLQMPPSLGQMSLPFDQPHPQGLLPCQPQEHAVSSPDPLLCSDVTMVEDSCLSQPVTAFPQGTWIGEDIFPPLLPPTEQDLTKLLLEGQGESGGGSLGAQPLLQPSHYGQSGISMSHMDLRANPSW
Summary of the method: (§1)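 Polarization of a 5 nM fluorescein tracer bound by 200 nM STAT protein, measured after 1 h room-temperature equilibration in buffered PBS pH 7.4 with DTT, gave inhibition constants via nonlinear curve fitting.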

STAT5A = biological target: T2, STAT5A (Homo sapiens, UniProt P42229); assay: Fluorescence polarization (FP) binding assay, STAT5A; conditions: FP competition, 5 nM fluorescein-labeled tracer, 200 nM protein, PBS pH7.4
T2 sequence (P42229 1-794): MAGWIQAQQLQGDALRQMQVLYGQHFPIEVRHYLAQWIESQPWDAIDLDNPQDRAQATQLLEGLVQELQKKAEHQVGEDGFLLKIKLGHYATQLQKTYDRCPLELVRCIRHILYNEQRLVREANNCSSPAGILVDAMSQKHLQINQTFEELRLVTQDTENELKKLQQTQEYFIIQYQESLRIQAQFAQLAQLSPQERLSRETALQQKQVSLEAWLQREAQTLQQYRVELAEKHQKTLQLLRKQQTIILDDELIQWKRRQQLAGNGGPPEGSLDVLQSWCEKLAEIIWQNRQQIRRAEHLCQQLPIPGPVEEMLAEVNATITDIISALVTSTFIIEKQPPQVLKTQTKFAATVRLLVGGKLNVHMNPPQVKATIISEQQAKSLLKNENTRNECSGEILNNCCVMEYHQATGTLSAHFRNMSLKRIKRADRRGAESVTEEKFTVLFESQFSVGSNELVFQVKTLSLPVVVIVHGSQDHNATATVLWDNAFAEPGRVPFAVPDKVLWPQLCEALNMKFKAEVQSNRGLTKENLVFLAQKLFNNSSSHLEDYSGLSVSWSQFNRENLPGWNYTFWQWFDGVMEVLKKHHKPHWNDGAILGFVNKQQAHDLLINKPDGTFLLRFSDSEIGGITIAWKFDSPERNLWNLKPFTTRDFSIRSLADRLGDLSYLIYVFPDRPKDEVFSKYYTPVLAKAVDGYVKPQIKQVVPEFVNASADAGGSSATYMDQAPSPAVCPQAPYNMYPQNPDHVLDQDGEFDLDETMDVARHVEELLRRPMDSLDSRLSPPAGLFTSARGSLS
Summary of the method: as §1

Row | Structure (SMILES) | Ki (STAT6 protein) [µM] | Ki (STAT5A) [µM]
1 | CC(C)(C)[C@H](NC(=O)c1cc2cc(C(F)(F)P(=O)(O)O)ccc2[nH]1)C(=O)N1CCC[C@H]1C(=O)NC1CCc2ccccc21 (stereo partly drawn) [Compound 12, ((2-(((2S)-1-((2S)-2-((2,3-dihydro-1H-inden-1-yl)carbamoyl)pyrrolidin-1-yl)-3,3-dimethyl-1-oxobutan-2-yl)carbamoyl)-1H-indol-5-yl)difluoromethyl)phosphonic acid] | 1 to 10 | > 10
2 | CC(C)(C)[C@H](NC(=O)/C=C/c1ccc(C(F)(F)P(=O)(O)O)cc1)C(=O)N1CCC[C@H]1c1nc(Cc2ccccc2)cs1 [Compound 18, ((4-((E)-3-(((S)-1-((S)-2-(4-benzylthiazol-2-yl)pyrrolidin-1-yl)-3,3-dimethyl-1-oxobutan-2-yl)amino)-3-oxoprop-1-en-1-yl)phenyl)difluoromethyl)phosphonic acid] | > 10 | > 10
3 | CC(C)(C)[C@H](NC(=O)/C=C/c1ccc(C(F)(F)P(=O)(O)O)cc1)C(=O)N1CCC[C@H]1c1nc(-c2ccccc2)cs1 [Compound 20, ((4-((E)-3-(((S)-3,3-dimethyl-1-oxo-1-((S)-2-(4-phenylthiazol-2-yl)pyrrolidin-1-yl)butan-2-yl)amino)-3-oxoprop-1-en-1-yl)phenyl)difluoromethyl)phosphonic acid] | > 10 | > 10
4 | O=C(N[C@@H](CC1CCCCC1)C(=O)N1CCC[C@H]1C(=O)N1CCc2ccccc2C1)c1cc2cc(C(F)(F)P(=O)(O)O)ccc2[nH]1 [Compound 23, ((2-(((S)-3-cyclohexyl-1-oxo-1-((S)-2-(1,2,3,4-tetrahydroisoquinoline-2-carbonyl)pyrrolidin-1-yl)propan-2-yl)carbamoyl)-1H-indol-5-yl)difluoromethyl)phosphonic acid] | 1 to 10 | 1 to 10
5 | O=C(/C=C/c1ccc(C(F)(F)P(=O)(O)O)cc1)N[C@@H](CC1CCCCC1)C(=O)N1CCC[C@H]1C(=O)N1CCc2ccccc2C1 [Compound 24, ((4-((E)-3-(((S)-3-cyclohexyl-1-oxo-1-((S)-2-(1,2,3,4-tetrahydroisoquinoline-2-carbonyl)pyrrolidin-1-yl)propan-2-yl)amino)-3-oxoprop-1-en-1-yl)phenyl)difluoromethyl)phosphonic acid] | > 10 | > 10
6 | CC(C)(C)[C@H](NC(=O)/C=C/c1ccc(C(F)(F)P(=O)(O)O)cc1)C(=O)N1CCC[C@H]1c1ncc(Cc2ccccc2)s1 [Compound 26, ((4-((E)-3-(((S)-1-((S)-2-(5-benzylthiazol-2-yl)pyrrolidin-1-yl)-3,3-dimethyl-1-oxobutan-2-yl)amino)-3-oxoprop-1-en-1-yl)phenyl)difluoromethyl)phosphonic acid] | > 10 | > 10
7 | O=C(N[C@@H](Cc1ccncc1)C(=O)N1CCC[C@H]1C(=O)N1CCc2ccccc2C1)c1cc2cc(C(F)(F)P(=O)(O)O)ccc2[nH]1 [Compound 27, (difluoro(2-(((S)-1-oxo-3-(pyridin-4-yl)-1-((S)-2-(1,2,3,4-tetrahydroisoquinoline-2-carbonyl)pyrrolidin-1-yl)propan-2-yl)carbamoyl)-1H-indol-5-yl)methyl)phosphonic acid] | 1 to 10 | > 10

Continued, values first:

Row | Ki (STAT6 protein) [µM] | Ki (STAT5A) [µM] | Structure (SMILES)
8 | 1 to 10 | > 10 | CC(C)(C)[C@H](NC(=O)c1cc2cc(C(F)(F)P(=O)(O)O)ccc2[nH]1)C(=O)N1CCC[C@H]1C(=O)N1CCN(c2ccccc2)CC1 [Compound 13, ((2-(((S)-3,3-dimethyl-1-oxo-1-((S)-2-(4-phenylpiperazine-1-carbonyl)pyrrolidin-1-yl)butan-2-yl)carbamoyl)-1H-indol-5-yl)difluoromethyl)phosphonic acid]
9 | 1 to 10 | > 10 | CC(C)(C)[C@H](NC(=O)c1cc2cc(C(F)(F)P(=O)(O)O)ccc2[nH]1)C(=O)N1CCC[C@H]1C(=O)NC(c1ccccc1)c1ccccc1 [Compound 14, ((2-(((S)-1-((S)-2-(benzhydrylcarbamoyl)pyrrolidin-1-yl)-3,3-dimethyl-1-oxobutan-2-yl)carbamoyl)-1H-indol-5-yl)difluoromethyl)phosphonic acid]
10 | 1 to 10 | 1 to 10 | CC(C)(C)[C@H](NC(=O)c1cc2cc(C(F)(F)P(=O)(O)O)ccc2[nH]1)C(=O)N1CCC[C@H]1C(=O)Nc1ccc2ccccc2c1 [Compound 15, ((2-(((S)-3,3-dimethyl-1-((S)-2-(naphthalen-2-ylcarbamoyl)pyrrolidin-1-yl)-1-oxobutan-2-yl)carbamoyl)-1H-indol-5-yl)difluoromethyl)phosphonic acid]
11 | 1 to 10 | > 10 | CC(C)(C)[C@H](NC(=O)c1cc2cc(C(F)(F)P(=O)(O)O)ccc2[nH]1)C(=O)N1CCC[C@H]1C(=O)N[C@@H]1C[C@H]1c1ccccc1 [Compound 16, ((2-(((S)-3,3-dimethyl-1-oxo-1-((S)-2-(((1R,2S)-2-phenylcyclopropyl)carbamoyl)pyrrolidin-1-yl)butan-2-yl)carbamoyl)-1H-indol-5-yl)difluoromethyl)phosphonic acid]
12 | 1 to 10 | 1 to 10 | CC(C)(C)[C@H](NC(=O)c1cc2cc(C(F)(F)P(=O)(O)O)ccc2[nH]1)C(=O)N1CCC[C@H]1c1nc(Cc2ccccc2)cs1 [Compound 17, ((2-(((S)-1-((S)-2-(4-benzylthiazol-2-yl)pyrrolidin-1-yl)-3,3-dimethyl-1-oxobutan-2-yl)carbamoyl)-1H-indol-5-yl)difluoromethyl)phosphonic acid]
13 | 1 to 10 | > 10 | CC(C)(C)[C@H](NC(=O)c1cc2cc(C(F)(F)P(=O)(O)O)ccc2[nH]1)C(=O)N1CCC[C@H]1c1nc(-c2ccccc2)cs1 [Compound 19, ((2-(((S)-3,3-dimethyl-1-oxo-1-((S)-2-(4-phenylthiazol-2-yl)pyrrolidin-1-yl)butan-2-yl)carbamoyl)-1H-indol-5-yl)difluoromethyl)phosphonic acid]
14 | 1 to 10 | > 10 | CC(C)(C)[C@H](NC(=O)c1cc2cc(C(F)(F)P(=O)(O)O)ccc2[nH]1)C(=O)N1CCC[C@H]1c1ncc(-c2ccccc2)s1 [Compound 21, ((2-(((S)-3,3-dimethyl-1-oxo-1-((S)-2-(5-phenylthiazol-2-yl)pyrrolidin-1-yl)butan-2-yl)carbamoyl)-1H-indol-5-yl)difluoromethyl)phosphonic acid]
15 | > 10 | > 10 | CC(C)(C)[C@H](NC(=O)/C=C/c1ccc(C(F)(F)P(=O)(O)O)cc1)C(=O)N1CCC[C@H]1c1ncc(-c2ccccc2)s1 [Compound 22, ((4-((E)-3-(((S)-3,3-dimethyl-1-oxo-1-((S)-2-(5-phenylthiazol-2-yl)pyrrolidin-1-yl)butan-2-yl)amino)-3-oxoprop-1-en-1-yl)phenyl)difluoromethyl)phosphonic acid]
16 | > 10 | 1 to 10 | CC(C)(C)[C@H](NC(=O)c1cc2cc(C(F)(F)P(=O)(O)O)ccc2[nH]1)C(=O)N1CCC[C@H]1c1ncc(Cc2ccccc2)s1 [Compound 25, ((2-(((S)-1-((S)-2-(5-benzylthiazol-2-yl)pyrrolidin-1-yl)-3,3-dimethyl-1-oxobutan-2-yl)carbamoyl)-1H-indol-5-yl)difluoromethyl)phosphonic acid]
